Test results from patent US20220017572A1, “GEMINOID LIPOPEPTIDE COMPOUNDS AND THEIR USES” (Erasmus University Medical Center Rotterdam, priority 2016, published 2022).
Residues, ends and D or L forms follow the SMILES beside them.

Legend:
dengue 2 protease [1] = target: T1, dengue 2 protease (Dengue virus type 2, UniProt P14340); test: Dengue 2 protease inhibition, hydrolysis of Z-RR-MCA; type: biochemical, dengue 2 virus; details: for activity at 5 µM: 5 μM inhibitor; for activity at 10 µM: 10 μM inhibitor; for activity at 15 µM: 15 μM inhibitor; for activity at 20 µM: 20 μM inhibitor; for activity at 40 µM: 40 μM inhibitor
T1 construct: The active site of the dengue protease is in the N-terminal part of NS3

thrombin = thrombin (Homo sapiens, UniProt P00734); test: Thrombin inhibition, fluorimetric enzyme assay; type: biochemical; details: 36.5° C., read-out: Residual Activity (%) Thrombin; for remaining activity at 18 µM: 18 μM inhibitor; for remaining activity at 55 µM: 55 μM inhibitor; for remaining activity at 85 µM: 85 μM inhibitor
Protocol: The enzyme was dissolved in 1 mL MES buffer (10 mM), 1 mM CaCl2, pH 7.0 at 36.5° C. Substrate was added in a concentration 10 times the Km, and the inhibitor compounds of type C (C16-KGnK-C16, C16-KAnK-C16, and C16-RAnR-C16) were added in increasing concentrations (1.0, 5.0, 10.0, 20.0, 40.0 μL) from a stock solution of 2 mg in 1 mL DMSO. The residual activity was measured in a Hitachi F2500 spectrofluorimeter, and plots were fitted using the Grafit® software (Erithracus Software, Horley, Surrey, UK). All the assays were calculated by the Morrison equation for competitive inhibition (eq. 1, [Morrison, 1969]). The amount of substrate used for the tight binding titration experiments follow all the requirements, where [S]<<Km for all enzymes, so the Kiapp=Ki. […]

dengue 2 protease [2] = target: T1, dengue 2 protease; test: Dengue 2 protease inhibition in presence of Triton X-100 (detergent test, Nature Protocol); type: biochemical, dengue 2 virus; details: 30 μM of inhibitor, 0.05% Triton X-100; for Activity with 0.05% Triton: initial activity in UAF/min
Source text: A further investigation of the interactions of the geminoid inhibitors with biological membranes and with membrane-bound proteases is needed. […] The preparation and tests of peptides symmetrically, asymmetrically and singly alkylated with saturated, short (C6), and unsaturated (C18:1) alkyl tails are in progress.

trypsin = target: T2, trypsin (Bos taurus, UniProt P00760); test: Trypsin inhibition, fluorimetric enzyme assay; type: biochemical; details: for remaining activity at 18 µM: 18 μM inhibitor; for remaining activity at 55 µM: 55 μM inhibitor; for remaining activity at 85 µM: 85 μM inhibitor
T2 construct: gene PRSS1
T2 sequence (P00760 24-246): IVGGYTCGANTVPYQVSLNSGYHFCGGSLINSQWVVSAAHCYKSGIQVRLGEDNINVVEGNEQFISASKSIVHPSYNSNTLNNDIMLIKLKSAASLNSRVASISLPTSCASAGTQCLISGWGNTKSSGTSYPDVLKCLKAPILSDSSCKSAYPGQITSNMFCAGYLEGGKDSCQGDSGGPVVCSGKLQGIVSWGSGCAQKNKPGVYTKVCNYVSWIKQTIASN
Protocol: (§1) The enzyme was dissolved in 1 mL MES buffer (10 mM), 1 mM CaCl2, pH 7.0 at 36.5° C. Substrate was added in a concentration 10 times the Km, and the inhibitor compounds of type C (C16-KGnK-C16, C16-KAnK-C16, and C16-RAnR-C16) were added in increasing concentrations (1.0, 5.0, 10.0, 20.0, 40.0 μL) from a stock solution of 2 mg in 1 mL DMSO. The residual activity was measured in a Hitachi F2500 spectrofluorimeter, and plots were fitted using the Grafit® software (Erithracus Software, Horley, Surrey, UK). All the assays were calculated by the Morrison equation for competitive inhibition (eq. 1, [Morrison, 1969]). The amount of substrate used for the tight binding titration experiments follow all the requirements, where [S]<<Km for all enzymes, so the Kiapp=Ki.
(§2) The first group of gemini-like peptide amphiphiles to be screened was that of C16-K(G or A)nK-C16 (compound type C, with R1=n-C15H31, R2=n-C16H33). […] The results of the Ki determination for trypsin, dengue 2 protease, and human furin are given in Table 1A; some general data for the inhibition by this type of compounds are given in Table 1B. For most compounds in Table 1 the Ki could be derived from competitive inhibition experiments. Judging from the Ki values with the relatively simple substrate Z-RR-MCA, the best inhibitors for dengue 2 protease contain alanine (A) rather than glycine (G).

dengue 2 protease [3] = target: T1, dengue 2 protease; test: Dengue 2 protease inhibition, hydrolysis of Z-RR-MCA; type: biochemical, dengue 2 virus; parameters: unit not given here; details: 30 μM of inhibitor; 10 μM Z-RR-MCA, pH 9.0, 37° C.; initial activity in UAF/min
human furin = human furin (Homo sapiens, UniProt P09958); test: Human furin inhibition, hydrolysis of Ac-RVRR-MCA; type: biochemical; details: 36.5° C.; for activity at 5 µM: 5 μM inhibitor; for activity at 10 µM: 10 μM inhibitor; for activity at 15 µM: 15 μM inhibitor; for activity at 20 µM: 20 μM inhibitor; for activity at 40 µM: 40 μM inhibitor
Protocol: as §1
However, for furin we used a correction of Ki app, where [S]˜Km (eq. 2).
Range of Proteases Inhibited by Geminoids, Determination of Ki with Z-RR-MCA (Dengue 2 Protease) and Ac-RVRR-MCA (Furin) (SEQ ID NO:60).

plasmin = plasmin (Homo sapiens, UniProt P00747); test: Plasmin inhibition, fluorimetric enzyme assay; type: biochemical; details: 36.5° C., read-out: Residual Activity (%) Plasmin
Protocol: as §1, §2

[4] = 36.5° C., read-out: Residual Activity (%) Trypsin

T1 sequence (P14340 1476-1653): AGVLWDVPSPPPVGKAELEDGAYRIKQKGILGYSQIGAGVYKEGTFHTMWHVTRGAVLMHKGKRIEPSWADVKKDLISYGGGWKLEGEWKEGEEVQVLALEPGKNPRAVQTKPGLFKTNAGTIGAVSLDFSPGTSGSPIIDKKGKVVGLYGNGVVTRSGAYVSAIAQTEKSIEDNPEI
Sequence of plasmin (P00747 581-810 limits assumed, species assumed): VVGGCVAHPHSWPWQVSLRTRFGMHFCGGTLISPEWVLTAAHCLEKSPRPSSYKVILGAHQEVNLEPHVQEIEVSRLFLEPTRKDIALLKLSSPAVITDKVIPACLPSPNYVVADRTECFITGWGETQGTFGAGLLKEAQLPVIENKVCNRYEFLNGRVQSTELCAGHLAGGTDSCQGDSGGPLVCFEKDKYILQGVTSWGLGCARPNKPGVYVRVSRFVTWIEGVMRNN
Sequence of plasmin (P00747 97-580 partner limits assumed, species assumed): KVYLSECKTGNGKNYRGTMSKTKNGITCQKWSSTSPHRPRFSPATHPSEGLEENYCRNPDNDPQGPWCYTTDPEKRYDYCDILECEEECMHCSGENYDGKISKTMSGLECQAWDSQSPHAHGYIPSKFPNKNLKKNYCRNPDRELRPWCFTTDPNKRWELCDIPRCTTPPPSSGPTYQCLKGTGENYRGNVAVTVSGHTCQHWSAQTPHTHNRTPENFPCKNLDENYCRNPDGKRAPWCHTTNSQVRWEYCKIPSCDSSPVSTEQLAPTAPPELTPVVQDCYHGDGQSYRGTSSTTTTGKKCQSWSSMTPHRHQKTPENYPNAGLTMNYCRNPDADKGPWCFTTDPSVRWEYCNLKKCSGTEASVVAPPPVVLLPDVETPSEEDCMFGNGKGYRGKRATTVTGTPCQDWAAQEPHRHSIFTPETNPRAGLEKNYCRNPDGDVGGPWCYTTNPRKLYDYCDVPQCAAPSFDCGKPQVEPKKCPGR
Sequence of human furin (P09958 108-794): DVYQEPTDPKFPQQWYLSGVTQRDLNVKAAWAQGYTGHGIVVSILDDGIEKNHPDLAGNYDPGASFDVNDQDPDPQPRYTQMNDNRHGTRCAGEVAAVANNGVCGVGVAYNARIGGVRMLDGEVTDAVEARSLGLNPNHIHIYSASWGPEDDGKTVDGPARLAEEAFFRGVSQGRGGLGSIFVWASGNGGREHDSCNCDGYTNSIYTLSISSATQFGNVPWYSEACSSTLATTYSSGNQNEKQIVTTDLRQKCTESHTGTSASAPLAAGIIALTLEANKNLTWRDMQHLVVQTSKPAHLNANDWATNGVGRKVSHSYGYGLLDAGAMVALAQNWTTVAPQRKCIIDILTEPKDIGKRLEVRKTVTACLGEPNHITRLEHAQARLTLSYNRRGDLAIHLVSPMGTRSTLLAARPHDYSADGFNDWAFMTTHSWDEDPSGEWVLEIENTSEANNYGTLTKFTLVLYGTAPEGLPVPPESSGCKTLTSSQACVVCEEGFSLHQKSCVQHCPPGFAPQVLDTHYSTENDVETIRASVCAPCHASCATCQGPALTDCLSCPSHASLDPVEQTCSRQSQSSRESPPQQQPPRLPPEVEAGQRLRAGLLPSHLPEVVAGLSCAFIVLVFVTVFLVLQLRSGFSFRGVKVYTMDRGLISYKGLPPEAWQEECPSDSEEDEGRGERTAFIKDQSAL

Structure (SMILES) | Ki (dengue 2 protease [1]) [µM] | activity at 5 µM (dengue 2 protease [1]; 36.5° C.) [%] | activity at 10 µM (dengue 2 protease [1]; 36.5° C.) [%] | activity at 15 µM (dengue 2 protease [1]; 36.5° C.) [%] | activity at 20 µM (dengue 2 protease [1]; 36.5° C.) [%] | activity at 40 µM (dengue 2 protease [1]; 36.5° C.) [%] | remaining activity at 18 µM (thrombin) [%] | remaining activity at 55 µM (thrombin) [%] | remaining activity at 85 µM (thrombin) [%] | % recovery in presence of Triton (dengue 2 protease [2]) [%] | Activity with 0.05% Triton (dengue 2 protease [2]) | remaining activity at 18 µM (trypsin; [4]) [%] | remaining activity at 55 µM (trypsin; [4]) [%] | remaining activity at 85 µM (trypsin; [4]) [%] | Activity with inhibitors (dengue 2 protease [3]) | activity at 5 µM (human furin) [%] | activity at 10 µM (human furin) [%] | activity at 15 µM (human furin) [%] | activity at 20 µM (human furin) [%] | activity at 40 µM (human furin) [%] | further results
CCCCCCCCCCCCCCCCNC(=O)[C@H](CCCCN)NC(=O)CNC(=O)CNC(=O)CNC(=O)CNC(=O)[C@H](CCCCN)NC(=O)CCCCCCCCCCCCCCC [C16KG4KC16] (HELM PEPTIDE1{[CCCCCCCCCCCCCCCC(=O)[*:2]].K.G.G.G.G.K.[CCCCCCCCCCCCCCCCN[*:1]]}$$$$V2.0) | 1.37 | 86 | 78 | 70 | 60 | 45 | 88 | 59 | 41 | 63 | 125 | 81 | 67 | 53 | 0 | 82 | 64 | 54 | 23 | 0 | 
CCCCCCCCCCCCCCCCNC(=O)[C@H](CCCCN)NC(=O)CNC(=O)CNC(=O)CNC(=O)[C@H](CCCCN)NC(=O)CCCCCCCCCCCCCCC [C16-KGGGK-C16, C15H31CO-KGGGK-NH—C16H33] (HELM PEPTIDE1{[CCCCCCCCCCCCCCCC(=O)[*:2]].K.G.G.G.K.[CCCCCCCCCCCCCCCCN[*:1]]}$$$$V2.0) | 2.5 | 86 | 80 | 74 | 65 | 51 | 81 | 64 | 45 | 75 | 154 | 84 | 56 | 38 | 40 | 68 | 35 | 29 | 20 | 0 | Ki (trypsin): 11.1 µM
CCCCCCCCCCCCCCCCNC(=O)[C@H](CCCCN)NC(=O)[C@H](CCCCN)NC(=O)CCCCCCCCCCCCCCC [C16-KK-C16, C15H31CO-KK-NH—C16H33] | 5.37 |  |  |  | 58 |  |  | 48 | 37 | 52 | 113 |  | 58 | 43 | 48 |  |  |  | 10 |  | activity at 50 µM (dengue 2 protease [1]; 50 μM inhibitor, 36.5° C.): 37%; activity at 100 µM (dengue 2 protease [1]; 100 μM inhibitor, 36.5° C.): 7%; remaining activity at 15 µM (thrombin; 15 μM inhibitor): 62%; Ki (trypsin): 84.7 µM; remaining activity at 15 µM (trypsin; 15 μM inhibitor, 36.5° C., read-out: Residual Activity (%) Trypsin): 82%; activity at 50 µM (human furin; 50 μM inhibitor): 5%; activity at 100 µM (human furin; 100 μM inhibitor): 0%; remaining activity at 15 µM (plasmin; 15 μM inhibitor): 39%; remaining activity at 55 µM (plasmin; 55 μM inhibitor): 11%; remaining activity at 85 µM (plasmin; 85 μM inhibitor): 4%
